Source: paper PMC10481938, “Discovery of new Schistosoma mansoni aspartyl protease inhibitors by structure-based virtual screening” (Memórias do Instituto Oswaldo Cruz, 2023)
pIC50: −log10 of the molar value.

What was measured:
[1] = test system: adult worm aqueous extract (AWAE) aspartic protease activity; experiment: AWAE aspartic protease activity assay; assay type: biochemical, Schistosoma mansoni; settings: for pIC50: aspartic protease activity of adult worm aqueous extract, with 5 µM E-64, 95% confidence interval in parentheses; for Enzymatic activity inhibition (%) AWAE: 10 μM of compound, average of triplicate of single experiment, CV% in parentheses
Description: Preparation of adult worm aqueous extract (AWAE) - The extract was prepared from the homogenisation of 1 mL of worms, containing both male and female, in 5 mL of phosphate buffered saline (PBS) + 1% CHAPS, at pH 7.4, using a Turrax disperser. This volume of parasites is roughly equivalent to 20 adult parasites. The homogenate was centrifuged at 20,000 g for 1 hour at 4 °C, and the supernatant stored at -80 °C. An aliquot was used for the protein dosing by the Lowry method (DC^TM protein assay - BIO-RAD).
[…] In tests involving screening of compounds, the percentage of inhibition of enzymatic activity was calculated considering the mean of the negative control as 100% activity.
(§1) AWAE aspartic protease activity assay - For assaying the aspartyl protease activity present in the AWAE, the same protocol described above for SmCD1 was followed, except for 20 µg of total proteins present in AWAE were added instead of the recombinant SmCD1 enzyme. Additionally, 5 µM of E-64, an inhibitor of cysteinyl proteases, was added to prevent enzymes of this class present in the AWAE[15] to also contribute to substrate hydrolysis on the acidic pH of the assay.
(§2) Determination of IC 50 values - For IC50 (inhibitor concentration in which the enzymatic activity is reduced by 50%) determination assays, serial dilutions of the inhibitors were performed, ranging from 1 µM to 500 µM. The IC50 values were determined by fitting SmCD1 activity data into the 4-parameter logistic equation.

porcine pepsin = molecular target: T1, porcine pepsin (Sus scrofa, UniProt P00791); experiment: Specificity assay toward porcine pepsin; assay type: biochemical; settings: for inhibition at 10 µM: 10 μM of compound, average of triplicate of single experiment, CV% in parentheses, read-out: Enzymatic activity inhibition (%) Pepsin; for pIC50: porcine pepsin, 95% confidence interval in parentheses
T1 construct: purchased Difco 0151-17 / 215110
Description: (§3) SmCD1 enzymatic assay - Initially, 2.5 μg of SmCD1 was added to a reaction medium containing 50 mM sodium acetate buffer with 50 mM NaCl at pH 3.5. […] After incubation, to start the reaction, 10 μM of the substrate octapeptide fluorescent (FRET) Abz-AIAF/FSRQ-EDDnp (102023-1, GenOne) was added to the medium. The substrate hydrolysis reaction product was continuously detected (λex = 310 nm and λem = 420 nm), using a Flex Station III microplate reader (Molecular Devices), during the initial 10 min of the reaction.
(§4) Specificity assays toward mammalian proteases - For recombinant BtCD and porcine pepsin, the same protocol described above for SmCD1 was followed, except for 10 μg of BtCD or 5 μg of pepsin were added.
The IC50 values were determined by fitting SmCD1 activity data into the 4-parameter logistic equation.

[2] = molecular target: recombinant Schistosoma mansoni cathepsin D-like aspartyl protease 1 (SmCD1) (Schistosoma mansoni, UniProt P91802); experiment: SmCD1 enzymatic assay (FRET substrate Abz-AIAF/FSRQ-EDDnp); assay type: biochemical; settings: for inhibition at 10 µM: read-out: Enzymatic activity inhibition (%) SmCD1; for pIC50: recombinant SmCD1, pH 3.5, 95% confidence interval in parentheses; for Binding efficiency index (BEI): BEI = pIC50/MW(kDa), from SmCD1 IC50
Description: SmCD1 cloning, expression and purification - Expression of the recombinant enzyme was previously performed by our group[14] by transfection of the vector with recombinant proSmCD1 gene (proSmCD1r) into culture bottles containing human embryonic kidney (HEK293) cells. After an incubation period of three to five days, the culture medium of the HEK293 cells was collected, filtered, and used for the purification of the recombinant protein. A HisTrap FF column in-tandem with a HiLoad 16/60 Superdex column, connected to an Äkta Xpress system were used for the purification of the protein.
as §3
(§5) All enzymatic assays in this work were performed as described above, and repeated at least three times, each condition in triplicate. In tests involving screening of compounds, the percentage of inhibition of enzymatic activity was calculated considering the mean of the negative control as 100% activity.
as §2

[3] = test system: aspartic protease activity (porcine pepsin, SmCD1, AWAE); experiment: Aspartic protease inhibition screening of 50 putative hits (hit criterion); assay type: biochemical; settings: 10 µM, SmCD1 or AWAE
Description: as §3, §5, §1, §4
The AWAE assay captures the combined activities of all SmAPs present in schistosome adult worms, while excluding the concurrent cysteinyl protease activity, due the addition of the broad-spectrum E-64 inhibitor.

[4] = molecular target: T2, bovine cathepsin D (BtCD) (Bos taurus, UniProt P80209); experiment: Specificity assay toward bovine cathepsin D (BtCD); assay type: biochemical
T2 construct: purchased Sigma-Aldrich C3138
Description: as §3, §4

WSS-1 cells = experiment: Cytotoxicity assay on human WSS-1 cells (resazurin); assay type: cell-based; settings: 48 h
Description: Cytotoxicity assays on human WSS-1 cells - The cytotoxicity of compounds 5, 19 and 50 was evaluated against normal epithelial cells derived from human kidney (WSS-1, ATCC™ CRL-2029). Cells were seeded in 96-well plates, at 5x10^4 cells/mL, in DMEM high glucose medium supplemented with 10% foetal bovine serum (FBS). After adherence period of 24 h, at 37 °C and 5% CO2, the cells were treated with compounds at 10 µM or 100 μM concentrations and incubated for 44 h. After this time, resazurin solution was added to cells culture, at a final concentration of 0.01 mg/mL. The cells returned to the incubator for another 4 h to complete 48 h total incubation time.[50]
Fluorescence readings of resorufin (λex = 560 nm, λem = 590 nm) were taken immediately (F0) and 4 hours (F4) after resazurin addition, using Flex Station III. The percentage of viable cells at the end of the experiment, that is, after compounds exposure for 48h, was calculated as follows: […]
<mml:math><mml:mi>V</mml:mi><mml:mi>i</mml:mi><mml:mi>a</mml:mi><mml:mi>b</mml:mi><mml:mi>l</mml:mi><mml:mi>e</mml:mi><mml:mi> </mml:mi><mml:mi>c</mml:mi><mml:mi>e</mml:mi><mml:mi>l</mml:mi><mml:mi>l</mml:mi><mml:mi>s</mml:mi><mml:mo>=</mml:mo><mml:mfrac><mml:mrow><mml:mi>F</mml:mi><mml:mn>4</mml:mn><mml:mo>-</mml:mo><mml:mi>F</mml:mi><mml:mn>0</mml:mn><mml:mi mathvariant="normal"> </mml:mi><mml:mi mathvariant="normal">t</mml:mi><mml:mi mathvariant="normal">r</mml:mi><mml:mi mathvariant="normal">e</mml:mi><mml:mi mathvariant="normal">a</mml:mi><mml:mi mathvariant="normal">t</mml:mi><mml:mi mathvariant="normal">e</mml:mi><mml:mi mathvariant="normal">d</mml:mi></mml:mrow><mml:mrow><mml:mi>F</mml:mi><mml:mn>4</mml:mn><mml:mo>-</mml:mo><mml:mi>F</mml:mi><mml:mn>0</mml:mn><mml:mi mathvariant="normal"> </mml:mi><mml:mi mathvariant="normal">c</mml:mi><mml:mi mathvariant="normal">o</mml:mi><mml:mi mathvariant="normal">n</mml:mi><mml:mi mathvariant="normal">t</mml:mi><mml:mi mathvariant="normal">r</mml:mi><mml:mi mathvariant="normal">o</mml:mi><mml:mi mathvariant="normal">l</mml:mi></mml:mrow></mml:mfrac><mml:mi mathvariant="normal"> </mml:mi><mml:mi mathvariant="normal">x</mml:mi><mml:mi mathvariant="normal"> </mml:mi><mml:mn>100</mml:mn><mml:mi mathvariant="normal"> </mml:mi></mml:math>

adult S. mansoni worms = experiment: Schistosoma mansoni adult worms ex vivo motility assay; assay type: cell-based; settings: 10 µM; for effect on female worms motility: late incubation times (48 or 72 h), female adult worms; for killing of adult worms ex vivo (judged by worm motility): up to 72 h, male and female adult worms
Description: Schistosoma mansoni adult worms ex vivo assay - The effect of 10 µM of the test compounds or PZQ (positive control) on adult S. mansoni worms motility for up to 72 h of incubation at 37 °C and 5% CO2 was evaluated by a high content assay previously developed by our group.[50] Image analysis was carried out in a customised pipeline of the open-source Cellprofiler software v. 4.2.1[51] and consisted of quantifying parasites area (Area measurement of MeasureObjectSizeShape module) and its displacement over pairs of consecutive images (false negative rate measurement of MeasureObjectOverlap module). […] The effects of the experimental treatments on parasites motility were estimated from this model by the integrated nested laplace approximation (INLA) method available in INLA package of R (https://www.r-inla.org). The results were expressed as percentual relative motility considering the estimated effect of the negative control group (0.2% DMSO) for each incubation time as 100%.

[5] = up to tested concentration 500 μM

T1 sequence (P00791 60-385): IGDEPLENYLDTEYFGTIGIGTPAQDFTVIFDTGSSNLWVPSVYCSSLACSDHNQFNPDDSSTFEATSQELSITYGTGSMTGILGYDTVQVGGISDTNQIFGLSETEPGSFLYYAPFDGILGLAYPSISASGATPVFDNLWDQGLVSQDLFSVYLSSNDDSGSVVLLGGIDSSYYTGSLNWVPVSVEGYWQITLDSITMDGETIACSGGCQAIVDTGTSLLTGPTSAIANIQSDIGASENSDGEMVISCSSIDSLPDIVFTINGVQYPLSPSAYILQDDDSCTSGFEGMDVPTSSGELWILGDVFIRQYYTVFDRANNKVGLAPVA
Sequence of recombinant Schistosoma mansoni cathepsin D-like aspartyl protease 1 (SmCD1) (P91802 entry or part of it): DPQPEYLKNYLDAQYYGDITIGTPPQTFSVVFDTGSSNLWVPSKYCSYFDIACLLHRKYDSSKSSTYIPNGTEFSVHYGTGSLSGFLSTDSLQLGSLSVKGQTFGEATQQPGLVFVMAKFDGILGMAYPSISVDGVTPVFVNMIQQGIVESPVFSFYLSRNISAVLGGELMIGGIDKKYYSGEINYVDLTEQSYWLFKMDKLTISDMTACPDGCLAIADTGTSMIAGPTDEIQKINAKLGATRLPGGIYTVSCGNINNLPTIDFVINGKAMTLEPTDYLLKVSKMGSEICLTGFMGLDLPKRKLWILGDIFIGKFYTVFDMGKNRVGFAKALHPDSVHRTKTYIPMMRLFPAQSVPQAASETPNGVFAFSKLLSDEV
T2 sequence (P80209 45-390): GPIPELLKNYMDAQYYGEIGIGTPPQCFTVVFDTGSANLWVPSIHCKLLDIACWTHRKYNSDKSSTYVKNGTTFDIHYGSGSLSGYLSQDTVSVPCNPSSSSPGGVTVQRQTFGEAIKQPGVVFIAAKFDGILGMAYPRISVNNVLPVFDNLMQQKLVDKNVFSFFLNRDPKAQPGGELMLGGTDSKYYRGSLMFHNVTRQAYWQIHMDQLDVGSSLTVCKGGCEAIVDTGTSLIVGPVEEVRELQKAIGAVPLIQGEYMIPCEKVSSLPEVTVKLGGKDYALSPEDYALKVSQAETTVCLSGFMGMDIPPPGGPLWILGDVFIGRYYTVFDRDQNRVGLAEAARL

Row | Molecule | pIC50 [1] | inhibition at 10 µM (porcine pepsin) [%] | pIC50 (porcine pepsin) | inhibition at 10 µM [2] [%] | pIC50 [2] | inhibition of any of the aspartic protease activity (considered active) [3] [%] | Enzymatic activity inhibition (%) AWAE [1] | inhibition at 500 µM ([4]; highest concentration evaluated, 500 μM (solubility limitation)) [%] | pIC50 ([4]; inferred from less than 50% inhibition at 500 μM) | cytotoxicity against WSS-1 cells (WSS-1 cells; 10 µM) | cytotoxicity against WSS-1 cells (WSS-1 cells; up to 100 µM) | effect on female worms motility (adult S. mansoni worms) | killing of adult worms ex vivo (judged by worm motility) (adult S. mansoni worms) | Binding efficiency index (BEI) [2] | inhibition against pepsin (porcine pepsin; [5]) | decrease of WSS-1 cell viability (WSS-1 cells; 100 µM) | inhibition against SmCD1 [2, 5]
1 | O=C(CSc1nc2cc([N+](=O)[O-])ccc2[nH]1)Nc1ccc(F)c(F)c1 [Compound 1] | < 3.30 | 5.6 | < 3.30 | 0.4 | < 3.30 | ≥ 25 |  |  |  |  |  |  |  |  |  |  | 
2 | Cc1cccc(NS(=O)(=O)c2ccc3[nH]c(=O)c(=O)[nH]c3c2)c1 [Compound 5, 2,3-dioxo-N-(m-tolyl)-1,2,3,4-tetrahydroquinoxaline-6-sulfonamide] | 3.87 | 44.2 | 4.03 | 24.3 | 4.08 | ≥ 25 | 23.0 (14) % | ≤ 45 | < 3.30 | neither cytotoxic | non-toxic | slight decrease | nor could kill adult worms | 12.3 |  |  | 
3 | Cc1ccc(C(C)(C)C)c(OCCCNCCN)c1 [Compound 12] | 3.50 | -3.5 | 3.64 | -10.5 | < 3.30 | ≥ 25 | 32.0 (11) % |  |  |  |  |  |  |  |  |  | 
4 | Cc1cccc(NC(=O)CSc2ncnc3sc4c(c23)CCC(C)C4)c1 (centres unmarked) [Compound 19, 2-((7-methyl-5,6,7,8-tetrahydrobenzo[4,5]thieno[2,3-d]pyrimidin-4-yl)thio)-N-(m-tolyl)acetamide] | < 3.30 | 42.4 | 4.64 | -15.3 | 3.99 | ≥ 25 | 9.20 (12) % |  |  | neither cytotoxic | non-toxic |  | nor could kill adult worms | 10.4 |  |  | 
5 | CCn1c2ccccc2c2cc(NC(=O)CSC3=C(C#N)C(c4ccccc4F)CC(=O)N3)ccc21 (centres unmarked) [Compound 22] | < 3.30 | 25.4 | 4.42 | 1.8 | < 3.30 | ≥ 25 | 16.0 (15) % |  |  |  |  |  |  |  |  |  | 
6 | N=C(Nc1ccccc1)Nc1nc(=O)cc(CSc2nc3ccccc3s2)[nH]1 [Compound 32] | < 3.30 | 34.7 | 4.14 | 12.2 | < 3.30 | ≥ 25 |  |  |  |  |  |  |  |  |  |  | 
7 | Fc1ccc(-c2ccc(CNCCOc3ccccn3)o2)cc1Cl [Compound 50] | 4.11 | 10.5 | < 3.30 | 3.4 | < 3.30 | ≥ 25 | 34.5 (8) % |  |  | neither cytotoxic and safe |  | slight decrease | nor could kill adult worms |  | not showing significant inhibition | more than 90% | not showing significant inhibition
8 | pepstatin A [reference compound] |  |  |  |  |  |  | 98.7 (7) % |  |  |  |  |  |  |  |  |  | 
